pIC50: −log10 of the molar value. Counter-ions that a name gives are not always drawn. Like-named read-outs stand apart in the source and are kept apart here. Each block holds one compound with its values, some of them ahead of it.
How the values were obtained:
Type in all cases: cell-based
[1] = system: a variety of tumor cell types; experiment: In vitro antiproliferation assays against a variety of tumor cell types (stereoisomer comparison); conditions: for Inhibition of proliferation of a variety of tumor cell lines: in words
Procedure: Moreover, it has been discovered that the enantiomer corresponding to the (1R,2R,3S,4S) diastereomer of structural formula (IVa) is largely responsible for the potency of the exo-exo cis racemate.
(§1) Certain compounds were tested against other cell types for their ability to inhibit proliferation in standard antiproliferation assays.

[2] = system: H7299; experiment: In vitro antiproliferation assay, H7299 cells
Procedure: as §1

[3] = system: H1299 (non-small cell lung carcinoma); experiment: In vitro antiproliferation assay, H1299 cells (TABLE 1 6 point assay; TABLE 2)
Procedure: as §1

[4] = system: A549 (lung carcinoma); experiment: In vitro antiproliferation assay, A549 cells (TABLE 1 6 point assay; TABLE 2)
Procedure: as §1

[5] = 6 point assay, H1299 cells, read-out: IC50, H1299 cells
[6] = 6 point assay, A549 cells, read-out: IC50, A549 cells
[7] = Homo sapiens, NCI-H1299, H1299 cells, 6 point assay, read-out: H1299, 6pt (IC50, inhibition of proliferation)
[8] = Homo sapiens, A549, A549 cells, 6 point assay, read-out: A549, 6pt (IC50, inhibition of proliferation)
[9] = Homo sapiens, NCI-H1299, 6 point assay, H1299 cells, read-out: IC50, H1299 cells
[10] = Homo sapiens, A549, 6 point assay, A549 cells, read-out: IC50, A549 cells

SMILES: Cc1cc(Nc2ncc(F)c(NC3CCCC3C(N)=O)n2)ccc1N1CCN(C)CC1 [trans (1S,2S) diastereomer, N4-(2-aminocarbonylcyclopent-1-yl)-5-fluoro-N2-[4-(4-methylpiperazin-1-yl)-3-methylphenyl]-2,4-pyrimidinediamine]
Inhibition of proliferation of a variety of tumor cell lines [1]: relatively inactive

SMILES: Cc1cc(Nc2ncc(F)c(NC3C4C=CC(C4)C3C(N)=O)n2)ccc1N1CCN(C)CC1 (racemic) [cis exo-exo racemate, N4-(3-aminocarbonylbicyclo[2.2.1]hept-5-en-2-yl)-5-fluoro-N2-[3-methyl-4-(4-methylpiperazin-1-yl)phenyl]-2,4-pyrimidinediamine]
Potency relative to the cis endo-endo racemate ([1]; cis exo-exo racemate, all cell lines tested): approximately twenty-fold more potent

SMILES: Cc1cc(Nc2ncc(F)c(NC3CCCC3C(N)=O)n2)ccc1N1CCN(C)CC1 [cis (1S,2R), N4-(2-aminocarbonylcyclopent-1-yl)-5-fluoro-N2-[4-(4-methylpiperazin-1-yl)-3-methylphenyl]-2,4-pyrimidinediamine]
Inhibition of proliferation of a variety of tumor cell lines [1]: inhibit the proliferation

SMILES: Cc1cc(Nc2ncc(F)c(NC3C4C=CC(C4)C3C(N)=O)n2)ccc1N1CCN(C)CC1 (racemic) [Compound 60r2, Racemic-(2-endo,3-endo)-N4-(3-aminocarbonylbicyclo[2.2.1]hept-5-en-2-yl)-5-fluoro-N2-[3-methyl-4-(4-methylpiperazin-1-yl)phenyl]-2,4-pyrimidinediamine]
pIC50 [2]: ≥ 6.00
pIC50 [3, 5]: 6.00 to 7.00
pIC50 [4, 6]: 6.00 to 7.00
pIC50 ([4]; A549, read-out: In Vitro IC50): ≥ 6.00

SMILES: Cc1cc(Nc2ncc(F)c(NC3C4C=CC(C4)C3C(N)=O)n2)ccc1N1CCN(C)CC1 (racemic) [Compound 228, Racemic N4-(3-Aminocarbonylbicyclo[2.2.1]hept-5-en-2-yl)-5-fluoro-N2-[3-methyl-4-(4-methylpiperazin-1-yl)phenyl]-2,4-pyrimidinediamine Hydrogen Chloride Salt]
pIC50 [2]: ≥ 6.00
pIC50 [3, 5]: ≥ 7.00
pIC50 ([3]; H1299, read-out: In Vitro IC50): ≥ 6.00
pIC50 [4, 6]: ≥ 7.00
pIC50 ([4]; A549, read-out: In Vitro IC50): ≥ 6.00

SMILES: Cc1cc(Nc2ncc(F)c(NC3C4C=CC(C4)C3C(N)=O)n2)ccc1N1CCN(C)CC1 [(1S,2S,3R,4R) diastereomer, N4-(3-aminocarbonylbicyclo[2.2.1]hept-5-en-2-yl)-5-fluoro-N2-[3-methyl-4-(4-methylpiperazin-1-yl)phenyl]-2,4-pyrimidinediamine]
IC50s when tested as isolated stereoisomers ([1]; range in words, same cell lines): micromolar range

pIC50 [3, 7]: 5.00 to 6.00
pIC50 [4, 8]: 5.00 to 6.00
SMILES: Cc1cc(Nc2ncc(F)c(N[C@H]3[C@@H](C(N)=O)[C@H]4C=C[C@@H]3C4)n2)ccc1N1CCN(C)CC1 [compound 155, (1S,2R,3S,4R)-N4-(3-Aminocarbonylbicyclo[2.2.1]hept-5-en-2-yl)-5-fluoro-N2-[3-methyl-4-(4-methylpiperazin-1-yl)phenyl]-2,4-pyrimidinediamine]

pIC50 [3, 9]: ≥ 7.00
pIC50 [4, 10]: ≥ 7.00
SMILES: Cc1cc(Nc2ncc(F)c(NC3C4C=CC(C4)C3C(N)=O)n2)ccc1O (racemic) [compound 250, Racemic-(2-exo,3-exo)-N4-(3-aminocarbonylbicyclo[2.2.1]hept-5-en-2-yl)-5-fluoro-N2-[(4-hydroxy-3-methyl)phenyl]-2,4-pyrimidinediamine]

SMILES: Cc1cc(Nc2ncc(F)c(NC3CCCC3C(N)=O)n2)ccc1N1CCN(C)CC1 [trans (1R,2R) diastereomer, N4-(2-aminocarbonylcyclopent-1-yl)-5-fluoro-N2-[4-(4-methylpiperazin-1-yl)-3-methylphenyl]-2,4-pyrimidinediamine]
Inhibition of proliferation of a variety of tumor cell lines [1]: inhibit the proliferation

pIC50 [3, 7]: 5.00 to 6.00
pIC50 [4, 8]: 5.00 to 6.00
SMILES: COc1cc(Nc2ncc(F)c(NC3C4C=CC(C4)C3C(N)=O)n2)ccc1S(N)(=O)=O (racemic) [compound 133, Racemic-(2-exo,3-exo)-N4-(3-aminocarbonylbicyclo[2.2.1]hept-5-en-2-yl)-N2-(4-aminosulfonyl-3-methoxyphenyl)-5-fluoro-2,4-pyrimidinediamine]

pIC50 [3, 7]: ≥ 7.00
pIC50 [4, 8]: ≥ 7.00
SMILES: Cc1cc(Nc2ncc(F)c(NC3C4C=CC(C4)C3C(=O)NC(C)C)n2)ccc1N1CCN(C)CC1 (racemic) [compound 162]

pIC50 [3, 9]: 5.00 to 6.00
pIC50 [4, 10]: 5.00 to 6.00
SMILES: Cc1cc(Nc2ncc(F)c(N[C@H]3C=C[C@@H](C(N)=O)C3)n2)ccc1N1CCN(C)CC1 [compound 226, (1R,4S)-cis-N4-(4-Aminocarbonylcyclopent-2-ene-1-yl)-5-fluoro-N2-[3-methyl-4-(4-methylpiperazin-1-yl)phenyl]-2,4-pyrimidinediamine]

pIC50 [3, 7]: ≥ 7.00
pIC50 [4, 8]: ≥ 7.00
SMILES: CNC(=O)C1C2C=CC(C2)C1Nc1nc(Nc2ccc(N3CCN(C)CC3)c(C)c2)ncc1F (racemic) [compound 166, Racemic-(2-exo,3-exo)-N4-[3-(N-methyl)aminocarbonylbicyclo[2.2.1]hept-5-en-2-yl)-5-fluoro-N2-[3-methyl-4-(4-methylpiperazin-1-yl)phenyl]-2,4-pyrimidinediamine]

pIC50 [3, 5]: 5.00 to 6.00
pIC50 [4, 6]: 6.00 to 7.00
SMILES: CN1CCN(c2ccc(Nc3ncc(F)c(NC4CCCC4C(N)=O)n3)cc2C(F)(F)F)CC1 (stereo not drawn) [compound 207, (cis)-N4-(2-Carboxamidocyclopent-1-yl)-5-fluoro-N2-[4-(4-methylpiperazino)-3-trifluoromethylphenyl]-2,4-pyrimidinediamine Bis Hydrogen Chloride Salt]

pIC50 [3, 9]: 5.00 to 6.00
pIC50 [4, 10]: 5.00 to 6.00
SMILES: COC(=O)[C@H]1CCC[C@@H]1Nc1nc(Nc2ccc(N3CCN(C)CC3)c(C)c2)ncc1F [compound 208, (1S,2S)-5-fluoro-N4-(2-methoxycarbonylcyclopent-1-yl)-N2-[3-methyl-4-(4-methylpiperazino)phenyl]-2,4-pyrimidinediamine]

pIC50 [3, 9]: ≥ 7.00
pIC50 [4, 10]: ≥ 7.00
SMILES: Cc1cc(Nc2ncc(F)c(N[C@H]3[C@@H](C(N)=O)[C@@H]4C=C[C@H]3C4)n2)ccc1NC1CCN(C)CC1 [compound 272, (1R,2R,3S,4S)-N4-(3-Aminocarbonylbicyclo[2.2.1]hept-5-en-2-yl)-5-fluoro-N2-(3-methyl-4-(1-methylpiperidin-4-ylamino)phenyl]-2,4-pyrimidinediamine]

pIC50 [3, 9]: ≥ 7.00
pIC50 [4, 10]: ≥ 7.00
SMILES: CN1CCN(c2ccc(Nc3ncc(F)c(NC4C5C=CC(C5)C4C(N)=O)n3)cc2C#N)CC1 (racemic) [compound 243, Racemic-(2-exo,3-exo)-N4-(3-aminocarbonylbicyclo[2.2.1]hept-5-en-2-yl)-N2-[3-cyano-4-(4-methylpiperazin-1-yl)phenyl]-5-fluoro-2,4-pyrimidinediamine]

pIC50 [3, 9]: ≥ 7.00
pIC50 [4, 10]: ≥ 7.00
SMILES: Cc1cc(Nc2ncc(F)c(N[C@@H]3[C@H]4CC[C@H](C4)[C@@H]3C(N)=O)n2)ccc1N1CCN(C)CC1 (racemic) [compound 240, Racemic-(2-exo,3-exo)-N4-(3-aminocarbonylbicyclo[2.2.1]hept-2-yl)-5-fluoro-N2-[3-methyl-4-(4-methylpiperazin-1-yl)phenyl]-2,4-pyrimidinediamine]

pIC50 [3, 9]: ≥ 7.00
pIC50 [4, 10]: ≥ 7.00
SMILES: CN1CCN(c2ccc(Nc3ncc(F)c(NC4C5C=CC(C5)C4C(N)=O)n3)cc2Cl)CC1 (racemic) [compound 233, Racemic-(2-exo,3-exo)-N4-(3-aminocarbonylbicyclo[2.2.1]hept-5-en-2-yl)-N2-[3-chloro-4-(4-methylpiperazin-1-yl)phenyl]-5-fluoro-2,4-pyrimidinediamine]

pIC50 [3, 9]: 5.00 to 6.00
pIC50 [4, 10]: 5.00 to 6.00
SMILES: Cc1cc(Nc2ncc(F)c(NC34CC5CC(CC3C5)C4)n2)ccc1N1CCN(C)CC1 [compound 259, 5-Fluoro-N2-[3-methyl-4-(4-methylpiperazin-1-yl)phenyl]-N4-(3-noradamantyl)-2,4-pyrimidinediamine]

SMILES: Cc1cc(Nc2ncc(F)c(NC3CCCC3C(N)=O)n2)ccc1N1CCN(C)CC1 [cis (1R,2S), N4-(2-aminocarbonylcyclopent-1-yl)-5-fluoro-N2-[4-(4-methylpiperazin-1-yl)-3-methylphenyl]-2,4-pyrimidinediamine]
Inhibition of proliferation of a variety of tumor cell lines [1]: inhibit the proliferation
